Data published in paper PMC12778052 (Science Advances, 2026).

Columns and labels:
in vivo = test: in vivo; set-up: species or system NSG mice; settings: mouse; for tissue uptake at 2 min / tissue uptake at 0.25 h / tissue uptake at 1 h / tissue uptake at 2 h / tissue uptake at 3 h / tissue to tissue ratio at 2 min / tissue to tissue ratio at 0.25 h / tissue to tissue ratio at 1 h / tissue to tissue ratio at 2 h / tissue to tissue ratio at 3 h: NSG, iv, 1.85 MBq, total radioactivity
Procedure: Mice were injected with cancer cells subcutaneously in 100 μl of PBS (top right flank) for all tumor models. The following cell numbers were used: HT1376 (4 million), UC9 (3 million), UC14 (3 million), RT112 (1.5 million), T24(3 million), and SCaBER (4 million). Mice with tumor volumes of 100 to 200 mm^3 were used for all experiments. A minimum of four mice were used for all biodistribution studies. A minimum of seven mice were used in PD experiment to account for greater variability. To validate imaging studies, ex vivo biodistribution studies were conducted in mice with tumors of 100 to 200 mm^3 in size. […] In all other studies, a 60-min time point was chosen. Selected tissues (blood, skin, muscle, bone, salivary glands, tumor, lungs, heart, liver, pancreas, spleen, kidneys, bladder, and testicles) were collected, weighed, and counted, and their %IA/g values were calculated as described previously ([33]). For EV PD studies, fewer organs were harvested to accommodate a higher number of mice.

T24 cells = test: In vitro binding of [^68Ga]AJ647 to T24 cells; type: cell-based; settings: T24 (low Nectin-4); 1 × 10^6 cells, ~1 μCi, 30 min, 4°C; means ± SD, n = 4
Procedure: (§1) In vitro binding of [^68Ga]AJ647 to T24, SCaBER, RT112, UC9, UC14, and HT1376 cells was determined by incubating 1 × 10^6 cells with ~1 μCi of [^68Ga]AJ647 for 30 min at 4°C. After incubation, cells were washed three times with ice-cold PBS containing 0.1% Tween 20 and counted on an automated gamma counter. All cell radioactivity uptake studies were performed in quadruplicate for each cell line and repeated three times.

RT112 cells = test: In vitro binding of [^68Ga]AJ647 to RT112 cells; type: cell-based; settings: 1 × 10^6 cells, ~1 μCi, 30 min, 4°C, means ± SD, n = 4
Procedure: as §1

SMILES: CSCC[C@@H]1NC(=O)[C@@H]2CSCCC(=O)N3CN(CN(C3)C(=O)CCSC[C@H](NC(=O)CCOCCOCCOCCOCCOCCOCCOCCOCCOCCOCCOCCOCCNC(=O)CN3CCN(CC(=O)O)CCN(CC(=O)O)CC3)C(=O)N3CCC[C@H]3C(=O)N[C@@H](Cc3cccc4ccccc34)C(=O)N[C@@H](CC(=O)O)C(=O)N2)C(=O)CCSC[C@@H](C(N)=O)NC(=O)[C@H](Cc2c[nH]c3ccccc23)NC(=O)[C@@H]2C[C@@H](O)CN2C(=O)[C@@H]2CCCN2C(=O)[C@H]([C@@H](C)O)NC(=O)[C@H](CO)NC(=O)[C@H](Cc2c[nH]c3ccccc23)NC(=O)[C@@H](CC(=O)O)NC(=O)[C@H](CCCCNC(=N)N)NC1=O [[^68Ga]AJ647, metal not drawn]
- tissue uptake at 2 min (in vivo; Blood): 35.8 ± 3.64 %ID/g
- tissue uptake at 0.25 h (in vivo; Blood): 2.94 ± 0.68 %ID/g
- tissue uptake at 1 h (in vivo; Blood): 0.84 ± 0.22 %ID/g
- tissue uptake at 2 h (in vivo; Blood): 0.28 ± 0.06 %ID/g
- tissue uptake at 3 h (in vivo; Blood): 0.32 ± 0.09 %ID/g
- tissue uptake at 2 min (in vivo; Femur): 1.88 ± 0.29 %ID/g
- tissue uptake at 0.25 h (in vivo; Femur): 1.3 ± 0.05 %ID/g
- tissue uptake at 1 h (in vivo; Femur): 0.57 ± 0.18 %ID/g
- tissue uptake at 2 h (in vivo; Femur): 0.27 ± 0.09 %ID/g
- tissue uptake at 3 h (in vivo; Femur): 0.34 ± 0.09 %ID/g
- tissue uptake at 2 min (in vivo; Heart): 11.3 ± 0.51 %ID/g
- tissue uptake at 0.25 h (in vivo; Heart): 1.15 ± 0.34 %ID/g
- tissue uptake at 1 h (in vivo; Heart): 0.43 ± 0.07 %ID/g
- tissue uptake at 2 h (in vivo; Heart): 0.19 ± 0.01 %ID/g
- tissue uptake at 3 h (in vivo; Heart): 0.22 ± 0.01 %ID/g
- tissue uptake at 2 min (in vivo; Liver): 6.45 ± 1.39 %ID/g
- tissue uptake at 0.25 h (in vivo; Liver): 1.19 ± 0.3 %ID/g
- tissue uptake at 1 h (in vivo; Liver): 0.45 ± 0.09 %ID/g
- tissue uptake at 2 h (in vivo; Liver): 0.21 ± 0.07 %ID/g
- tissue uptake at 3 h (in vivo; Liver): 0.23 ± 0.02 %ID/g
- tissue uptake at 2 min (in vivo; Lung): 24.2 ± 7.05 %ID/g
- tissue uptake at 0.25 h (in vivo; Lung): 3.66 ± 0.5 %ID/g
- tissue uptake at 1 h (in vivo; Lung): 1.66 ± 0.25 %ID/g
- tissue uptake at 2 h (in vivo; Lung): 0.81 ± 0.28 %ID/g
- tissue uptake at 3 h (in vivo; Lung): 0.47 ± 0.2 %ID/g
- tissue uptake at 2 min (in vivo; Muscle): 0.96 ± 0.19 %ID/g
- tissue uptake at 0.25 h (in vivo; Muscle): 0.93 ± 0.36 %ID/g
- tissue uptake at 1 h (in vivo; Muscle): 0.38 ± 0.06 %ID/g
- tissue uptake at 2 h (in vivo; Muscle): 0.2 ± 0.11 %ID/g
- tissue uptake at 3 h (in vivo; Muscle): 0.18 ± 0.05 %ID/g
- tissue uptake at 2 min (in vivo; Salivary glands): 6.3 ± 1.24 %ID/g
- tissue uptake at 0.25 h (in vivo; Salivary glands): 4.74 ± 0.94 %ID/g
- tissue uptake at 1 h (in vivo; Salivary glands): 1.48 ± 0.18 %ID/g
- tissue uptake at 2 h (in vivo; Salivary glands): 0.67 ± 0.09 %ID/g
- tissue uptake at 3 h (in vivo; Salivary glands): 0.69 ± 0.07 %ID/g
- tissue uptake at 2 min (in vivo; Skin): 1.13 ± 0.16 %ID/g
- tissue uptake at 0.25 h (in vivo; Skin): 2.74 ± 0.5 %ID/g
- tissue uptake at 1 h (in vivo; Skin): 1.45 ± 0.33 %ID/g
- tissue uptake at 2 h (in vivo; Skin): 0.82 ± 0.22 %ID/g
- tissue uptake at 3 h (in vivo; Skin): 0.66 ± 0.12 %ID/g
- tissue uptake at 2 min (in vivo; Small intestine): 0.85 ± 0.23 %ID/g
- tissue uptake at 0.25 h (in vivo; Small intestine): 0.68 ± 0.23 %ID/g
- tissue uptake at 1 h (in vivo; Small intestine): 0.52 ± 0.17 %ID/g
- tissue uptake at 2 h (in vivo; Small intestine): 0.16 ± 0.02 %ID/g
- tissue uptake at 2 min (in vivo; Stomach): 0.34 ± 0.11 %ID/g
- tissue uptake at 0.25 h (in vivo; Stomach): 0.49 ± 0.36 %ID/g
- tissue uptake at 2 h (in vivo; Stomach): 0.13 ± 0.04 %ID/g
- tissue uptake at 2 min (in vivo; Thymus): 15.7 ± 5.42 %ID/g
- tissue uptake at 0.25 h (in vivo; Thymus): 2.38 ± 0.7 %ID/g
- tissue uptake at 1 h (in vivo; Thymus): 0.71 ± 0.3 %ID/g
- tissue uptake at 2 h (in vivo; Thymus): 0.67 ± 0.21 %ID/g
- tissue uptake at 3 h (in vivo; Thymus): 0.52 ± 0.23 %ID/g
- tissue uptake at 2 min (in vivo; Tumor): 0.72 ± 0.31 %ID/g
- tissue uptake at 0.25 h (in vivo; Tumor): 3.75 ± 0.86 %ID/g
- tissue uptake at 1 h (in vivo; Tumor): 3.72 ± 0.36 %ID/g
- tissue uptake at 2 h (in vivo; Tumor): 2.06 ± 0.49 %ID/g
- tissue uptake at 3 h (in vivo; Tumor): 1.39 ± 0.32 %ID/g
- tissue to tissue ratio at 2 min (in vivo; Tumor/blood ratio): 0.02 ± 0.01
- tissue to tissue ratio at 0.25 h (in vivo; Tumor/blood ratio): 1.41 ± 0.4
- tissue to tissue ratio at 1 h (in vivo; Tumor/blood ratio): 4.6 ± 0.47
- tissue to tissue ratio at 2 h (in vivo; Tumor/blood ratio): 7.27 ± 0.76
- tissue to tissue ratio at 3 h (in vivo; Tumor/blood ratio): 4.58 ± 1.33
- tissue to tissue ratio at 2 min (in vivo; Tumor/muscle ratio): 0.79 ± 0.45
- tissue to tissue ratio at 0.25 h (in vivo; Tumor/muscle ratio): 4.23 ± 0.94
- tissue to tissue ratio at 1 h (in vivo; Tumor/muscle ratio): 10.1 ± 2.19
- tissue to tissue ratio at 2 h (in vivo; Tumor/muscle ratio): 11.3 ± 3.03
- tissue to tissue ratio at 3 h (in vivo; Tumor/muscle ratio): 8.2 ± 4.02
- tissue uptake at 2 min (in vivo; male, Adrenals): 4.81 ± 2.58 %ID/g
- tissue uptake at 0.25 h (in vivo; male, Adrenals): 2.6 ± 1.1 %ID/g
- tissue uptake at 1 h (in vivo; male, Adrenals): 4.45 ± 2.03 %ID/g
- tissue uptake at 3 h (in vivo; male, Adrenals): 3.8 ± 0.47 %ID/g
- tissue uptake at 2 min (in vivo; male, Bladder): 1.72 ± 0.24 %ID/g
- tissue uptake at 0.25 h (in vivo; male, Bladder): 24.1 ± 15.3 %ID/g
- tissue uptake at 1 h (in vivo; male, Bladder): 39.5 ± 21.3 %ID/g
- tissue uptake at 2 h (in vivo; male, Bladder): 22.6 ± 6.46 %ID/g
- tissue uptake at 3 h (in vivo; male, Bladder): 58 ± 24.8 %ID/g
- tissue uptake at 2 min (in vivo; male, Brain): 0.54 ± 0.15 %ID/g
- tissue uptake at 0.25 h (in vivo; male, Brain): 0.1 ± 0.02 %ID/g
- tissue uptake at 1 h (in vivo; male, Brain): 0.06 ± 0.01 %ID/g
- tissue uptake at 2 h (in vivo; male, Brain): 0.06 ± 0.02 %ID/g
- tissue uptake at 3 h (in vivo; male, Brain): 0.06 ± 0.02 %ID/g
- tissue uptake at 0.25 h (in vivo; male, Kidney): 20.4 ± 3.7 %ID/g
- tissue uptake at 1 h (in vivo; male, Kidney): 30.8 ± 4.37 %ID/g
- tissue uptake at 2 h (in vivo; male, Kidney): 17.3 ± 12.9 %ID/g
- tissue uptake at 2 min (in vivo; male, Large intestine): 0.25 ± 0.16 %ID/g
- tissue uptake at 0.25 h (in vivo; male, Large intestine): 0.41 ± 0.11 %ID/g
- tissue uptake at 3 h (in vivo; male, Large intestine): 0.18 ± 0.05 %ID/g
- tissue uptake at 2 min (in vivo; male, Pancreas): 2.39 ± 0.72 %ID/g
- tissue uptake at 0.25 h (in vivo; male, Pancreas): 2.5 ± 0.38 %ID/g
- tissue uptake at 1 h (in vivo; male, Pancreas): 0.93 ± 0.03 %ID/g
- tissue uptake at 2 h (in vivo; male, Pancreas): 0.3 ± 0.06 %ID/g
- tissue uptake at 3 h (in vivo; male, Pancreas): 0.42 ± 0.02 %ID/g
- tissue uptake at 2 min (in vivo; male, Spleen): 1.04 ± 0.23 %ID/g
- tissue uptake at 0.25 h (in vivo; male, Spleen): 4.32 ± 1.31 %ID/g
- tissue uptake at 1 h (in vivo; male, Spleen): 1.75 ± 0.21 %ID/g
- tissue uptake at 2 h (in vivo; male, Spleen): 0.84 ± 0.17 %ID/g
- tissue uptake at 3 h (in vivo; male, Spleen): 0.83 ± 0.07 %ID/g
- tissue uptake at 2 min (in vivo; male, Testicles): 0.79 ± 0.07 %ID/g
- tissue uptake at 0.25 h (in vivo; male, Testicles): 0.86 ± 0.12 %ID/g
- tissue uptake at 1 h (in vivo; male, Testicles): 0.74 ± 0.2 %ID/g
- tissue uptake at 2 h (in vivo; male, Testicles): 0.52 ± 0.17 %ID/g
- tissue uptake at 3 h (in vivo; male, Testicles): 0.93 ± 0.5 %ID/g
- blood pool activity cleared (in vivo): more than 90%
- [^68Ga]AJ647 uptake (T24 cells): 0.2 ± 0.11 %IA
- [^68Ga]AJ647 uptake (RT112 cells): 1.9 ± 0.18 %IA
